# According to patent publication US12152012B2, “BRAG2 inhibitors and applications thereof” (CENTRE NATIONAL DE LA RECHERCHE SCIENTIFIQUE, priority 2018, dated 2024):
# Key:
# [1] = biological target: T1, ARNO (Sec7PH construct) (Homo sapiens, UniProt Q99418); assay: Nucleotide exchange kinetics on liposomes, activation of myristoylated Arf1; format: biochemical; conditions: 50 μM
# T1 construct: BIG1^DcbHusSec7 (2-888) and ARNO^Sec7PH (50-399); made in house
# T1 sequence (Q99418 50-399 isoform Q99418-2): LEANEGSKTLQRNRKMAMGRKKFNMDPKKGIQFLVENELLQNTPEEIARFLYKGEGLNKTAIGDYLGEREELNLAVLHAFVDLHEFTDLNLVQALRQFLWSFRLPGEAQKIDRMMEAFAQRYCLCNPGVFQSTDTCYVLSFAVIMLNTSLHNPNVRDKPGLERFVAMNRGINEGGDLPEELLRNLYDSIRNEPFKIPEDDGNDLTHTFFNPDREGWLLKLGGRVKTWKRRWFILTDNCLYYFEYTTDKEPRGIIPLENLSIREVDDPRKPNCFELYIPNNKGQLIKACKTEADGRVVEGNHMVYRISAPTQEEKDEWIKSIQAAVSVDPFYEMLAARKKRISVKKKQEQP
# [2] = biological target: T2, Sec7 domain of BIG1 (Homo sapiens, UniProt Q9Y6D6); assay: Nucleotide exchange fluorescence kinetics in solution, Sec7 domain with truncated Arf1; format: biochemical; conditions: 50 μM, no membranes
# T2 construct: BIG1^Sec7 (691-889), BIG1^DcbHusSec7 (2-888); made in house
# T2 sequence (Q9Y6D6 691-889): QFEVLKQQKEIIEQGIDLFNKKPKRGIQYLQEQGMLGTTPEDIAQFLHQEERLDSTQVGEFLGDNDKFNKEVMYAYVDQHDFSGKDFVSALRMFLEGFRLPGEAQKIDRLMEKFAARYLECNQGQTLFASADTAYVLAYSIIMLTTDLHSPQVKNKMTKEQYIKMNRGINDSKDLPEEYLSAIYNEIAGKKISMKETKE
# Description: The effect of Bragsin1 on the GEF efficiency of representative human ArfGEFs was evaluated by fluorescence kinetics using highly purified recombinant Arf GTPases and ArfGEFs. In a first series of assays, the Sec7 domains of BIG1, a Golgi ArfGEF, and of ARNO, EFA6a and BRAG2, which function at the plasma membrane, were used. When tested in solution, Bragsin1 had no effect on the activation of Arf1 by any of these Sec7 domains (FIGS. 2a and 14). Separately, we reconstituted the activation of myristoylated Arf1 by the same ArfGEFs on liposomes using ArfGEF constructs that contain a membrane-binding domain (DCB-HUS domain for BIG1, PH domains for the other GEFs). […] BRAG2 activates several Arf isoforms, including the plasma membrane-located Arf6 isoform. […] Bragsin1 and Bragsin2 have the same IC50 towards BRAG2 ([…]) according to dose-response analysis, confirming that Bragsin1 and Bragsin2 can be used interchangeably (FIG. 2d). The specific inhibition of BRAG2 by Bragsin in vitro predicts that BRAG2 silencing by siRNA should yield the same phenotype as treatment by the small molecule. Silencing of BRAG2 induced the redistribution of TGN46 into tubular or punctate structures, which phenocopied the effects induced by Bragsin (FIGS. 2e, 17 and 18). […] Silencing of ARNO, which is located at the plasma membrane, had no effect on TGN46 distribution. Overexpression of BRAG2-mCherry rescued the dispersion of the TGN46 structure induced by Bragsin, which is consistent with the silencing experiments (FIG. 2f). Bragsin is a specific inhibitor of the ArfGEF BRAG2 in vitro and in cells according to these experiments. These oexperiments identify a mechanism of inhibition that requires the membrane to manifests itself. […]
# Nucleotide exchange kinetics were monitored by tryptophan fluorescence with excitation/emission wavelengths of 292/340 nm using a Cary Eclipse fluorimeter (Varian) at 37° C. and under continuous stirring as described in ^50,51. For specificity assays, 50 μM of Bragsin1 or 0.25% DMSO were incubated for 2 min at 37° C. in HKM buffer (50 mM HEPES pH 7.4, 120 mM potassium acetate, 1 mM MgCl2 and 1 mM DTT) with either 1 μM of N-terminally truncated Arf-GDP and 100 nM of indicated Sec7 domain (in solution) or 0.4 μM of ^myrArf1 in the presence of 100 μM of liposomes and 2 to 100 nM of ArfGEFs as described in (Benabdi, S. et al. Biochemistry 56, 5125-5133 (2017) and Peurois, F. et al. Biochem J 474, 1259-1272 (2017). Nucleotide exchange rates (kobs) were determined from monoexponential fits and means are given as the percentage of control activity±SD. […]
compound,measurement,setting,value
"Cc1ccc2oc(C(F)(F)F)cc(=O)c2c1[N+](=O)[O-] [Bragsin1, 6-methyl-5-nitro-2-(trifluoromethyl)-4H-chromen-4-one]",Effect on ArfGEF activity on liposomes,[1],no effect
same,Effect on activation of Arf1 by Sec7 domain in solution,[2],no effect
